Results: patent US20260276656A1, “GUT MICROBIOTA-RELATED METHODS FOR TREATING DEMENTIA AND AGE-DEPENDENT COGNITIVE DECLINE” (Albert-Ludwigs-Universitat Freiburg, priority 2019, published 2026)
Entries after “also recorded” stand apart in the source; their conditions may differ.

Tested on: Layer 2/3 pyramidal cells of the infralimbic or prelimbic mPFC
Test: Whole-cell patch-clamp recordings of spontaneous EPSCs and IPSCs in acute prefrontal brain slices
Format: cell-based, mouse
Details: pre-incubation with 10 μM
Protocol: Mice were injected intraperitoneally with ketamine/xylazine (100/13 mg/kg body weight) and intracardially perfused with ice-cold solution containing (in mM) NaCl 87, NaHCO325, KCl 2.5, NaH2PO4 1.25, glucose 10, sucrose 75, CaCl2 0.5 and MgCl2 7 (aerated with 95% O2/5% CO2). 300 μm thick frontal sections of the PFC were prepared with a vibratome and stored in artificial cerebrospinal fluid (ACSF) containing in mM: NaCl 125, NaHCO3 25, KCl 2.5, NaH2PO4 1.25, Glucose 25, CaCl2 2 and MgCl2 1 (equillibrated with 95% O2/5% CO2) first at 34° C. for 30 min, then at room temperature. Patch-clamp recordings were targeted to pyramidal neurons identified by their characteristic soma shape using pipettes pulled from borosilicate glass tubing and filled with a Cs-based pipette solution containing (in mM): CsCl 20, MgCl2 2, Na2ATP 2, QX-314 1, Hepes 10, TEACl 8, Cs-Gluconate 110. Recordings were performed at 30 to 34° C. using an Axopatch Multiclamp amplifier in voltage clamp mode. To isolate spontaneous excitatory postsynaptic currents (EPSCs), the resting membrane potential was held at −70 mV (the reversal potential of inhibitory postsynaptic currents (IPSCs). To record spontaneous IPSCs, the cell was held at 0 mV (the reversal potential of EPSCs). Both IPSCs and EPSCs were recorded from the same neurons in slices pre-incubated in 10 μM 6-valerobetaine or in control slices kept in ACSF. Spontaneous events were identified visually from lowpass-filtered data (<1 kHz). Amplitudes were measured from average events.

With `C[N+](C)(C)CCCCC(=O)[O-]` [NNN-trimethyl-5-aminovalerate, 5-(trimethylammonio) pentanoate] the “amplitude of spontaneous EPSCs” value was “unaltered; also recorded: no significant effect”, the “amplitude of spontaneous IPSCs” value was “not the amplitude; also recorded: no significant effect” and the “frequency of spontaneous EPSCs” value was “unaltered”. The “frequency of spontaneous IPSCs” value was “increased”.
